From patent publication US20250339408A1, “TREATMENT AND PREVENTION OF BASAL CELL CARCINOMA WITH TOPICAL COMPOSITION COMPRISING PATIDEGIB” (Sol-Gel Technologies Ltd., priority 2023, published 2025)

What was measured:
[1] = test system: basal cell carcinoma (BCC) lesions on the face; assay: Post hoc analysis of the Example 3 trial: Gorlin patients without PTCH1 mutation (Example 4); format: in vivo, human; conditions: for Number of qualifying nSEBs, observed, Mean / Number of new BCCs excluding no longer suspicious BCCs, observed, Mean: Gorlin syndrome without PTCH1 mutation, gel 2% twice daily to face; for Number of qualifying nSEBs, observed, Mean: baseline total BCC lesions at least 10; for Number of new BCCs excluding no longer suspicious BCCs, observed, Mean: baseline total facial BCC lesions at least 10
Description: (§1) A randomized, double-blind, stratified, vehicle-controlled study was done, measuring the efficacy and safety of Patidegib Topical Gel, 2%, applied topically twice daily to the face of adult participants with Gorlin syndrome. The Participants were required to apply the investigational product for 12 months. The primary endpoint is a comparison between the two treatment arms of the number of new BCCs that develop over the 12 month period.
A post hoc analysis was performed on the results of the clinical trial of Example 3 to analyze the impact of Patidegib on patients without PTCH1 mutation.

[2] = test system: basal cell carcinoma (BCC) lesions on the face; assay: Randomized, double-blind, vehicle-controlled study of Patidegib Topical Gel, 2% in Gorlin syndrome participants, ITT, all types of subjects (Example 3); format: in vivo, human; conditions: PTCH1 mutation not required, gel 2% twice daily to face
From the text: as §1
Participants will be randomized to receive Patidegib Topical Gel, 2%. The Patidegib Topical Gel, 2% will be dispensed to participants at each study visit and applied topically twice daily to the face.
Participants will be randomized to receive Vehicle. The Patidegib Topical Gel, Vehicle will be dispensed to participants at each study visit and applied topically twice daily to the face.
• 1. The participant must be age at least 18 years of age at the Screening Visit. • 2. The participant must provide written informed consent prior to any study procedures. • 3. The participant must meet diagnostic criteria for the basal cell nevus (Gorlin) syndrome including major criterion #3a plus 1 additional major criterion or plus 2 additional minor criteria listed below.
• a. >2 histologically confirmed BCCs or 1 for participant under age 20. • b. Odontogenic keratocysts of the jaw confirmed histologically. • c. ≥3 palmar and/or plantar pits seen at the Screening Visit. • d. Bilamellar calcification of the falx cerebri present at less than 20 years of age. • e. Fused, bifid, or markedly splayed ribs. • f. First degree relative with Gorlin syndrome. • g. Patched protein 1 (PTCH1) mutation predicted to be of functional significance in normal tissue.
• h. Macrocephaly. • i. Congenital malformations including frontal bossing, cleft lip or palate, “coarse face”, moderate to severe hypertelorism. • j. Skeletal abnormalities detectable clinically: Sprengel deformity, marked pectus deformity, or marked finger syndactyly. • k. Skeletal abnormalities detectable radiographically: bridging of the sella turcica; vertebral abnormalities such as hemivertebrae, fusion or elongation of the vertebral bodies; modeling defects of the hands and feet; flame shaped lucencies of the hands or feet. • l. Ovarian fibroma. • m. Medulloblastoma (Modification of criteria of V Kimonis et al Am J Med Genet 69: 299-308, 1997). • 4. The participant must have 10 (with at least 3 on the face) clinically typical BCCs present within 24 months prior to Randomization (Baseline/Day 1). Additionally, the subject must have at least 2 BCCs with longest diameter <5 mm present on the face prior to Randomization (Baseline/Day 1). • 5. […] The participant is willing for all facial BCCs to be evaluated and treatment recommendations made only by the Investigator. • 10. […]

CC1=C2C[C@H]3[C@@H](CC[C@@H]4C[C@H](NS(C)(=O)=O)CC[C@@]43C)[C@@H]2CC[C@@]2(C1)O[C@@H]1C[C@H](C)CN[C@H]1[C@H]2C [Patidegib]
Overall efficacy (in words) ([1]; Gorlin syndrome subjects who lacked the PTCH1 mutation (Examples 3 and 4)): produced no effect
Number of qualifying nSEBs, observed, Mean ([1]; month 3): 0.25
Number of qualifying nSEBs, observed, Mean ([1]; month 6): 0.92
Number of qualifying nSEBs, observed, Mean ([1]; month 9): 1.38
Number of qualifying nSEBs, observed, Mean ([1]; month 12): 2.50
Number of new BCCs excluding no longer suspicious BCCs, observed, Mean ([1]; month 3): 1.00
Number of new BCCs excluding no longer suspicious BCCs, observed, Mean ([1]; month 6): 2.92
Number of new BCCs excluding no longer suspicious BCCs, observed, Mean ([1]; month 9): 4.75
Number of new BCCs excluding no longer suspicious BCCs, observed, Mean ([1]; month 12): 6.67
Proportion of SEBs clinically resolved, observed, Mean ([2]; month 3): 7.72
Proportion of SEBs clinically resolved, observed, Mean ([2]; month 6): 6.91
Proportion of SEBs clinically resolved, observed, Mean ([2]; month 9): 9.13
Proportion of SEBs clinically resolved, observed, Mean ([2]; month 12): 15.03
